Laboratory results taken from publication PMC10865363, “Structural, Biochemical, and Computational Characterization of Sulfamides as Bimetallic Peptidase Inhibitors” (Journal of Chemical Information and Modeling, 2024).
pIC50: −log10 of the molar value. Counter-ions that a name gives are not always drawn.

What was measured:
[1] = molecular target: T1, Prostate-specific membrane antigen (PSMA) (Homo sapiens, UniProt Q04609); test: radioenzymatic assay with 3H-NAAG, purified recombinant PSMA; assay type: biochemical
T1 construct: gene FOLH1; extracellular part of human PSMA; amino acids 44–750
T1 sequence (Q04609 44-750): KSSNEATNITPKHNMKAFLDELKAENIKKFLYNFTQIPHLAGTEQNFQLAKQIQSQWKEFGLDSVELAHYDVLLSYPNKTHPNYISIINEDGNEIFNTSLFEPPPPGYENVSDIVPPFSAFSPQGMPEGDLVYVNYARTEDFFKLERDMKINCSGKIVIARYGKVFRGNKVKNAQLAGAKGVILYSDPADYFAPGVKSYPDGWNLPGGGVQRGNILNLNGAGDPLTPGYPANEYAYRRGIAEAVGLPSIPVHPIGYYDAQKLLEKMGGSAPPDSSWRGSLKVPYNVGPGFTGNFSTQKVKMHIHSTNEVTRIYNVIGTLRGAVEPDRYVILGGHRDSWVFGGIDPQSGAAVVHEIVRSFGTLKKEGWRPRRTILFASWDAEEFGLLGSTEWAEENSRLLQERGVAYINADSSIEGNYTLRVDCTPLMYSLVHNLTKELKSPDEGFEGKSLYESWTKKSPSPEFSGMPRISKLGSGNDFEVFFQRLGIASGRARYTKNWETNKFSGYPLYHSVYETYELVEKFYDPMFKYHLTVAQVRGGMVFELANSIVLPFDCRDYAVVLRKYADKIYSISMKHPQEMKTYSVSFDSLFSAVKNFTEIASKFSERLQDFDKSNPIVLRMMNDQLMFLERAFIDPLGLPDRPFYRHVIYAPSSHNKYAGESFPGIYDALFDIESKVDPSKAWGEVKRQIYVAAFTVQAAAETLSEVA

[2] = molecular target: T1, Prostate-specific membrane antigen (PSMA); test: X-ray crystal structure ([…] Å); IC50 from radioenzymatic 3H-NAAG assay with purified enzyme; assay type: biochemical

| pIC50 [1] | pIC50 [2] | Structure (SMILES) |
| --- | --- | --- |
| 3.99 | – | O=C(O)CC[C@H](NS(=O)(=O)N[C@@H](CC(=O)O)C(=O)O)C(=O)O [compound 3, (S)-2-((N-((S)-1,2-Dicarboxyethyl)sulfamoyl)amino)pentanedioic Acid Tetrasodium Salt] |
| – | 5.92 | NS(=O)(=O)N[C@@H](CCC(=O)O)C(=O)O [compound 9, monosubstituted glutamyl sulfamide 9] |
| 3.78 | – | O=C(O)CC[C@H](NS(=O)(=O)N[C@@H](CCC(=O)O)C(=O)O)C(=O)O [compound 4, (2S,2′S)-2,2′-(Sulfonylbis(azanediyl))dipentanedioic Acid] |
